Data published in patent US20230085307A1, “PYRIDAZINONE COMPOUND AND HERBICIDE” (NISSAN CHEMICAL CORPORATION, priority 2019, published 2023).

Experiments:
chickweed [1] = test: Test Example 5: herbicidal effect by foliage application, plastic box (Table 20, symbol P); format: in vivo, common chickweed (Stellaria media); settings: foliage application
Method in brief: (§1)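 Sow seeds spot-wise in sterilized diluvial soil; cover with ~1.5 cm soil. Grow 14 days in greenhouse, 25° C. to 30° C. Spray foliage with emulsion diluted to predetermined amount. Rate effect after 3 weeks.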

green foxtail [2] = test: Test Example 4: herbicidal effect by soil treatment (Table 19, symbol G); format: in vivo, green foxtail (Setaria viridis)
Method in brief: (§2)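 Applied as a water-diluted emulsion, the compound was sprayed onto soil covering newly sown seeds. Evaluation came three weeks after application, in a greenhouse held at 25° C. to 30° C.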

persian speedwell [3] = test: Test Example 5: herbicidal effect by foliage application, plastic box (Table 20, symbol R); format: in vivo, Persian speedwell (Veronica persica); settings: foliage application
Method in brief: as §1

chickweed [4] = test: Test Example 4: herbicidal effect by soil treatment (Table 19, symbol P); format: in vivo, common chickweed (Stellaria media)
Method in brief: as §2

barnyard grass [5] = test: Test Example 5: herbicidal effect by foliage application, plastic box (Table 20, symbol H); format: in vivo, barnyard grass (Echinochloa crus-galli); settings: foliage application
Method in brief: as §1

rice flat sedge = test: Test Example 3: herbicidal effect by foliage application, Wagner pot (Table 18, symbol E); format: in vivo, rice flat sedge (Cyperus iria); settings: 320 g/ha
Method in brief: (§3)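 Plants were sown in alluvial soil held under 0.1–0.5 cm standing water and grown 14 days in a greenhouse at 25–30 °C. An emulsifiable formulation, water-diluted to the set dose, was then sprayed onto the foliage, and effects were scored three weeks later using previously defined criteria.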

lambsquarters [6] = test: Test Example 4: herbicidal effect by soil treatment (Table 19, symbol O); format: in vivo, lambsquarters (Chenopodium album)
Method in brief: as §2

southern crabgrass [7] = test: Test Example 4: herbicidal effect by soil treatment (Table 19, symbol F); format: in vivo, southern crabgrass (Digitaria ciliaris)
Method in brief: as §2

wild oat [8] = test: Test Example 5: herbicidal effect by foliage application, plastic box (Table 20, symbol I); format: in vivo, wild oat (Avena fatua); settings: foliage application
Method in brief: as §1

false cleavers [9] = test: Test Example 5: herbicidal effect by foliage application, plastic box (Table 20, symbol Q); format: in vivo, false cleavers (Galium spurium); settings: foliage application
Method in brief: as §1

false cleavers [10] = test: Test Example 4: herbicidal effect by soil treatment (Table 19, symbol Q); format: in vivo, false cleavers (Galium spurium)
Method in brief: as §2

windgrass [11] = test: Test Example 4: herbicidal effect by soil treatment (Table 19, symbol L); format: in vivo, windgrass (Apera spica-venti)
Method in brief: as §2

persian speedwell [12] = test: Test Example 4: herbicidal effect by soil treatment (Table 19, symbol R); format: in vivo, Persian speedwell (Veronica persica)
Method in brief: as §2

southern crabgrass [13] = test: Test Example 5: herbicidal effect by foliage application, plastic box (Table 20, symbol F); format: in vivo, southern crabgrass (Digitaria ciliaris); settings: foliage application
Method in brief: as §1

redroot pigweed [14] = test: Test Example 4: herbicidal effect by soil treatment (Table 19, symbol N); format: in vivo, redroot pigweed (Amaranthus retroflexus)
Method in brief: as §2

velvetleaf [15] = test: Test Example 5: herbicidal effect by foliage application, plastic box (Table 20, symbol M); format: in vivo, velvetleaf (Abutilon theophrasti); settings: foliage application
Method in brief: as §1

green foxtail [16] = test: Test Example 5: herbicidal effect by foliage application, plastic box (Table 20, symbol G); format: in vivo, green foxtail (Setaria viridis); settings: foliage application
Method in brief: as §1

barnyard grass [17] = test: Test Example 4: herbicidal effect by soil treatment (Table 19, symbol H); format: in vivo, barnyard grass (Echinochloa crus-galli)
Method in brief: as §2

barnyard grass [18] = test: Test Example 3: herbicidal effect by foliage application, Wagner pot (Table 18, symbol H); format: in vivo, barnyard grass (Echinochloa crus-galli); settings: 320 g/ha
Method in brief: as §3

redroot pigweed [19] = test: Test Example 5: herbicidal effect by foliage application, plastic box (Table 20, symbol N); format: in vivo, redroot pigweed (Amaranthus retroflexus); settings: foliage application
Method in brief: as §1

Italian ryegrass [20] = test: Test Example 5: herbicidal effect by foliage application, plastic box (Table 20, symbol K); format: in vivo, Italian ryegrass (Lolium multiflorum); settings: foliage application
Method in brief: as §1

windgrass [21] = test: Test Example 5: herbicidal effect by foliage application, plastic box (Table 20, symbol L); format: in vivo, windgrass (Apera spica-venti); settings: foliage application
Method in brief: as §1

lambsquarters [22] = test: Test Example 5: herbicidal effect by foliage application, plastic box (Table 20, symbol O); format: in vivo, lambsquarters (Chenopodium album); settings: foliage application
Method in brief: as §1

blackgrass [23] = test: Test Example 5: herbicidal effect by foliage application, plastic box (Table 20, symbol J); format: in vivo, blackgrass (Alopecurus myosuroides); settings: foliage application
Method in brief: as §1

velvetleaf [24] = test: Test Example 4: herbicidal effect by soil treatment (Table 19, symbol M); format: in vivo, velvetleaf (Abutilon theophrasti)
Method in brief: as §2

Italian ryegrass [25] = test: Test Example 4: herbicidal effect by soil treatment (Table 19, symbol K); format: in vivo, Italian ryegrass (Lolium multiflorum)
Method in brief: as §2

wild oat [26] = test: Test Example 4: herbicidal effect by soil treatment (Table 19, symbol I); format: in vivo, wild oat (Avena fatua)
Method in brief: as §2

Chinese sprangletop = test: Test Example 3: herbicidal effect by foliage application, Wagner pot (Table 18, symbol D); format: in vivo, chinese sprangletop (Leptochloa chinensis); settings: 320 g/ha
Method in brief: as §3

blackgrass [27] = test: Test Example 4: herbicidal effect by soil treatment (Table 19, symbol J); format: in vivo, blackgrass (Alopecurus myosuroides)
Method in brief: as §2

[28] = AAH 320 g/ha, three weeks after application
[29] = amount of applied herbicide 320 g/ha
[30] = 320 g/ha, evaluated three weeks after application

Cc1nn(C)c(=O)c(-c2c(-c3cccc4c3OCC4)sc3ccccc23)c1O [1-103]
P: chickweed, herbicidal effect (chickweed [1]; [28]): 5 (Herbicidal rate of 90% or more (almost completely withered))
herbicidal effect rating, G: green foxtail (green foxtail [2]; [29]): 3 (Herbicidal rate of 40% or more and less than 70%)
R: persian speedwell, herbicidal effect (persian speedwell [3]; [28]): 5 (Herbicidal rate of 90% or more (almost completely withered))
herbicidal effect rating, P: chickweed (chickweed [4]; [29]): 1 (Herbicidal rate of 5% or more and less than 20%)
H: barnyard grass, herbicidal effect (barnyard grass [5]; [28]): 0 (Herbicidal rate of 5% or less (almost no effect))
herbicidal effect on E (rice flat sedge), rating 0-5 (rice flat sedge): 3 (Herbicidal rate of 40% or more and less than 70%)
herbicidal effect rating, O: lambsquarters (lambsquarters [6]; [29]): 3 (Herbicidal rate of 40% or more and less than 70%)
herbicidal effect rating, F: southern crabgrass (southern crabgrass [7]; [29]): 2 (Herbicidal rate of 20% or more and less than 40%)
I: wild oat, herbicidal effect (wild oat [8]; [28]): 0 (Herbicidal rate of 5% or less (almost no effect))
Q: false cleavers, herbicidal effect (false cleavers [9]; [28]): 4 (Herbicidal rate of 70% or more and less than 90%)
herbicidal effect rating, Q: false cleavers (false cleavers [10]; [29]): 0 (Herbicidal rate of 5% or less (almost no effect))
herbicidal effect rating, L: windgrass (windgrass [11]; [29]): 0 (Herbicidal rate of 5% or less (almost no effect))
herbicidal effect rating, R: persian speedwell (persian speedwell [12]; [29]): 2 (Herbicidal rate of 20% or more and less than 40%)
F: southern crabgrass, herbicidal effect (southern crabgrass [13]; [28]): 3 (Herbicidal rate of 40% or more and less than 70%)
herbicidal effect rating, N: redroot pigweed (redroot pigweed [14]; [29]): 3 (Herbicidal rate of 40% or more and less than 70%)
M: velvetleaf, herbicidal effect (velvetleaf [15]; [28]): 4 (Herbicidal rate of 70% or more and less than 90%)
G: green foxtail, herbicidal effect (green foxtail [16]; [28]): 3 (Herbicidal rate of 40% or more and less than 70%)
herbicidal effect rating, H: barnyard grass (barnyard grass [17]; [29]): 2 (Herbicidal rate of 20% or more and less than 40%)
herbicidal effect on H (barnyard grass), rating 0-5 (barnyard grass [18]): 3 (Herbicidal rate of 40% or more and less than 70%)
N: redroot pigweed, herbicidal effect (redroot pigweed [19]; [28]): 3 (Herbicidal rate of 40% or more and less than 70%)
K: Italian ryegrass, herbicidal effect (Italian ryegrass [20]; [28]): 3 (Herbicidal rate of 40% or more and less than 70%)
L: windgrass, herbicidal effect (windgrass [21]; [28]): 0 (Herbicidal rate of 5% or less (almost no effect))
O: lambsquarters, herbicidal effect (lambsquarters [22]; [28]): 3 (Herbicidal rate of 40% or more and less than 70%)
J: blackgrass, herbicidal effect (blackgrass [23]; [28]): 3 (Herbicidal rate of 40% or more and less than 70%)
herbicidal effect rating, M: velvetleaf (velvetleaf [24]; [29]): 0 (Herbicidal rate of 5% or less (almost no effect))
herbicidal effect rating, K: Italian ryegrass (Italian ryegrass [25]; [29]): 0 (Herbicidal rate of 5% or less (almost no effect))
herbicidal effect rating, I: wild oat (wild oat [26]; [29]): 0 (Herbicidal rate of 5% or less (almost no effect))
herbicidal effect on D (Chinese sprangletop), rating 0-5 (Chinese sprangletop): 4 (Herbicidal rate of 70% or more and less than 90%)
herbicidal effect rating, J: blackgrass (blackgrass [27]; [29]): 0 (Herbicidal rate of 5% or less (almost no effect))

CCCC(=O)Oc1c(C)nn(C)c(=O)c1-c1c(-c2ccc(F)cc2)sc2ccc(Cl)cc12 [2-098]
herbicidal effect on P: chickweed (chickweed [1]; [30]): 5 (Herbicidal rate of 90% or more (almost completely withered))
herbicidal effect rating, G: green foxtail (green foxtail [2]; 320 g/ha): 0 (Herbicidal rate of 5% or less (almost no effect))
herbicidal effect on R: persian speedwell (persian speedwell [3]; [30]): 5 (Herbicidal rate of 90% or more (almost completely withered))
herbicidal effect rating, P: chickweed (chickweed [4]; 320 g/ha): 4 (Herbicidal rate of 70% or more and less than 90%)
herbicidal effect on H: barnyard grass (barnyard grass [5]; [30]): 4 (Herbicidal rate of 70% or more and less than 90%)
herbicidal effect on E (rice flat sedge), rating 0-5 (rice flat sedge): 2 (Herbicidal rate of 20% or more and less than 40%)
herbicidal effect rating, O: lambsquarters (lambsquarters [6]; 320 g/ha): 4 (Herbicidal rate of 70% or more and less than 90%)
herbicidal effect rating, F: southern crabgrass (southern crabgrass [7]; 320 g/ha): 3 (Herbicidal rate of 40% or more and less than 70%)
herbicidal effect on I: wild oat (wild oat [8]; [30]): 5 (Herbicidal rate of 90% or more (almost completely withered))
herbicidal effect on Q: false cleavers (false cleavers [9]; [30]): 3 (Herbicidal rate of 40% or more and less than 70%)
herbicidal effect rating, Q: false cleavers (false cleavers [10]; 320 g/ha): 2 (Herbicidal rate of 20% or more and less than 40%)
herbicidal effect rating, L: windgrass (windgrass [11]; 320 g/ha): 3 (Herbicidal rate of 40% or more and less than 70%)
herbicidal effect rating, R: persian speedwell (persian speedwell [12]; 320 g/ha): 4 (Herbicidal rate of 70% or more and less than 90%)
herbicidal effect on F: southern crabgrass (southern crabgrass [13]; [30]): 5 (Herbicidal rate of 90% or more (almost completely withered))
herbicidal effect rating, N: redroot pigweed (redroot pigweed [14]; 320 g/ha): 4 (Herbicidal rate of 70% or more and less than 90%)
herbicidal effect on M: velvetleaf (velvetleaf [15]; [30]): 4 (Herbicidal rate of 70% or more and less than 90%)
herbicidal effect on G: green foxtail (green foxtail [16]; [30]): 4 (Herbicidal rate of 70% or more and less than 90%)
herbicidal effect rating, H: barnyard grass (barnyard grass [17]; 320 g/ha): 1 (Herbicidal rate of 5% or more and less than 20%)
herbicidal effect on H (barnyard grass), rating 0-5 (barnyard grass [18]): 5 (Herbicidal rate of 90% or more (almost completely withered))
herbicidal effect on N: redroot pigweed (redroot pigweed [19]; [30]): 5 (Herbicidal rate of 90% or more (almost completely withered))
herbicidal effect on K: Italian ryegrass (Italian ryegrass [20]; [30]): 5 (Herbicidal rate of 90% or more (almost completely withered))
herbicidal effect on L: windgrass (windgrass [21]; [30]): 5 (Herbicidal rate of 90% or more (almost completely withered))
herbicidal effect on O: lambsquarters (lambsquarters [22]; [30]): 4 (Herbicidal rate of 70% or more and less than 90%)
herbicidal effect on J: blackgrass (blackgrass [23]; [30]): 4 (Herbicidal rate of 70% or more and less than 90%)
herbicidal effect rating, M: velvetleaf (velvetleaf [24]; 320 g/ha): 3 (Herbicidal rate of 40% or more and less than 70%)
herbicidal effect rating, K: Italian ryegrass (Italian ryegrass [25]; 320 g/ha): 5 (Herbicidal rate of 90% or more (almost completely withered))
herbicidal effect rating, I: wild oat (wild oat [26]; 320 g/ha): 2 (Herbicidal rate of 20% or more and less than 40%)
herbicidal effect on D (Chinese sprangletop), rating 0-5 (Chinese sprangletop): 4 (Herbicidal rate of 70% or more and less than 90%)
herbicidal effect rating, J: blackgrass (blackgrass [27]; 320 g/ha): 0 (Herbicidal rate of 5% or less (almost no effect))
